Measured values published in patent US12077503B2, “Substituted cyclic amides and their use as herbicides” (FMC CORPORATION, priority 2015, dated 2024).

What was measured:
Format in all cases: in vivo
[1] = test system: redroot pigweed (Amaranthus retroflexus); assay: Test G Post-Emergence Protocol; settings: Amaranthus retroflexus, post-emergence, 312 h; for pest or weed control at 15.625 g/ha: 15.625 g ai/ha, evaluated after 13 days (100=total damage to plant; 0=no damage to plant), read-out: Pigweed, Redroot damage rating; for pest or weed control at 62.5 g/ha: 62.5 g ai/ha, read-out: Pigweed, Redroot damage rating (100=total damage to plant; 0=no damage to plant); for pest or weed control at 62.5 g/ha / pest or weed control at 250 g/ha: evaluated after 13 days; for pest or weed control at 250 g/ha: 250 g ai/ha, read-out: damage to plant, Pigweed, Redroot (100=total damage to plant; 0=no damage to plant)
How it was run: (§1)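 Pot-grown seedlings, 8 days old, raised in a glasshouse at 24/16 °C day/night with 14 h light and 65% humidity, were sprayed post-emergence with test compound in acetone/water (50:50) plus 0.5% Tween 20 at 15.625, 62.5 or 250 g/ha. Damage was scored visually 13 days later on a 0–100 scale (100 = total damage).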

[2] = test system: ivy-leaved morning glory (Ipomoea hederacea); assay: Test G Post-Emergence Protocol; settings: Ipomoea, post-emergence, 312 h; for pest or weed control at 15.625 g/ha: 15.625 g ai/ha, evaluated after 13 days (100=total damage to plant; 0=no damage to plant), read-out: Morningglory, Ivy-leaved damage rating; for pest or weed control at 62.5 g/ha: 62.5 g ai/ha, read-out: Morningglory, Ivy-leaved damage rating (100=total damage to plant; 0=no damage to plant); for pest or weed control at 62.5 g/ha / pest or weed control at 250 g/ha: evaluated after 13 days; for pest or weed control at 250 g/ha: 250 g ai/ha, read-out: damage to plant, Morningglory, Ivy-leaved (100=total damage to plant; 0=no damage to plant)
How it was run: as §1

[3] = test system: corn (Zea mays); assay: Test G Post-Emergence Protocol; settings: Zea mays, post-emergence, 312 h; for plant injury at 15.625 g/ha: 15.625 g ai/ha, evaluated after 13 days (100=total damage to plant; 0=no damage to plant), read-out: Corn damage rating; for plant injury at 62.5 g/ha: 62.5 g ai/ha, read-out: Corn damage rating (100=total damage to plant; 0=no damage to plant); for plant injury at 62.5 g/ha / plant injury at 250 g/ha: evaluated after 13 days; for plant injury at 250 g/ha: 250 g ai/ha, read-out: damage to plant, Corn (100=total damage to plant; 0=no damage to plant)
How it was run: as §1

[4] = test system: giant foxtail (Setaria faberi); assay: Test G Post-Emergence Protocol; settings: Setaria faberi, post-emergence, 312 h; for pest or weed control at 15.625 g/ha: 15.625 g ai/ha, evaluated after 13 days (100=total damage to plant; 0=no damage to plant), read-out: Foxtail, Giant damage rating; for pest or weed control at 62.5 g/ha: 62.5 g ai/ha, read-out: Foxtail, Giant damage rating (100=total damage to plant; 0=no damage to plant); for pest or weed control at 62.5 g/ha / pest or weed control at 250 g/ha: evaluated after 13 days; for pest or weed control at 250 g/ha: 250 g ai/ha, read-out: damage to plant, Foxtail, Giant (100=total damage to plant; 0=no damage to plant)
How it was run: as §1

[5] = test system: barnyardgrass (Echinochloa crus-galli); assay: Test G Post-Emergence Protocol; settings: Echinochloa crus-galli, post-emergence, 312 h; for pest or weed control at 15.625 g/ha: 15.625 g ai/ha, evaluated after 13 days (100=total damage to plant; 0=no damage to plant), read-out: Barnyardgrass damage rating; for pest or weed control at 62.5 g/ha: 62.5 g ai/ha, read-out: Barnyardgrass damage rating (100=total damage to plant; 0=no damage to plant); for pest or weed control at 62.5 g/ha / pest or weed control at 250 g/ha: evaluated after 13 days; for pest or weed control at 250 g/ha: 250 g ai/ha, read-out: damage to plant, Barnyardgrass (100=total damage to plant; 0=no damage to plant)
How it was run: as §1

[6] = test system: velvetleaf (Abutilon theophrasti); assay: Test G Post-Emergence Protocol; settings: Abutilon theophrasti, post-emergence, 312 h; for pest or weed control at 15.625 g/ha: 15.625 g ai/ha, evaluated after 13 days (100=total damage to plant; 0=no damage to plant), read-out: Velvetleaf damage rating; for pest or weed control at 62.5 g/ha: 62.5 g ai/ha, read-out: Velvetleaf damage rating (100=total damage to plant; 0=no damage to plant); for pest or weed control at 62.5 g/ha / pest or weed control at 250 g/ha: evaluated after 13 days; for pest or weed control at 250 g/ha: 250 g ai/ha, read-out: damage to plant, Velvetleaf (100=total damage to plant; 0=no damage to plant)
How it was run: as §1

[7] = test system: redroot pigweed (Amaranthus retroflexus); assay: Test G Pre-Emergence Protocol; settings: Amaranthus retroflexus, pre-emergence, 312 h, evaluated after 13 days; for pest or weed control at 15.625 g/ha: 15.625 g ai/ha; for pest or weed control at 15.625 g/ha / pest or weed control at 250 g/ha: read-out: Pigweed, Redroot damage rating (100=total damage to plant; 0=no damage to plant); for pest or weed control at 62.5 g/ha: 62.5 g ai/ha, 100=total damage to plant, 0=no damage to plant, read-out: plant damage rating, Pigweed, Redroot; for pest or weed control at 250 g/ha: 250 g ai/ha
How it was run: (§2)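 Pots of seeds in standard soil were grown for one day in a glasshouse (24/16 °C day/night, 14 h light, 65% humidity), then sprayed with compound in acetone/water 50:50 with 0.5% Tween 20 at 15.625, 62.5 or 250 g/ha. Damage was scored after 13 days on a 0 (none) to 100 (total) scale.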

[8] = test system: ivy-leaved morning glory (Ipomoea hederacea); assay: Test G Pre-Emergence Protocol; settings: Ipomoea, pre-emergence, 312 h, evaluated after 13 days; for pest or weed control at 15.625 g/ha: 15.625 g ai/ha, read-out: Morning-glory, Ivy-leaved damage rating (100=total damage to plant; 0=no damage to plant); for pest or weed control at 62.5 g/ha: 62.5 g ai/ha, 100=total damage to plant, 0=no damage to plant, read-out: plant damage rating, Morningglory, Ivy-leaved; for pest or weed control at 250 g/ha: 250 g ai/ha, read-out: Morningglory, Ivy-leaved damage rating (100=total damage to plant; 0=no damage to plant)
How it was run: as §2

[9] = test system: corn (Zea mays); assay: Test G Pre-Emergence Protocol; settings: Zea mays, pre-emergence, 312 h, evaluated after 13 days; for plant injury at 15.625 g/ha: 15.625 g ai/ha; for plant injury at 15.625 g/ha / plant injury at 250 g/ha: read-out: Corn damage rating (100=total damage to plant; 0=no damage to plant); for plant injury at 62.5 g/ha: 62.5 g ai/ha, 100=total damage to plant, 0=no damage to plant, read-out: plant damage rating, Corn; for plant injury at 250 g/ha: 250 g ai/ha
How it was run: as §2

[10] = test system: giant foxtail (Setaria faberi); assay: Test G Pre-Emergence Protocol; settings: Setaria faberi, pre-emergence, 312 h, evaluated after 13 days; for pest or weed control at 15.625 g/ha: 15.625 g ai/ha; for pest or weed control at 15.625 g/ha / pest or weed control at 250 g/ha: read-out: Foxtail, Giant damage rating (100=total damage to plant; 0=no damage to plant); for pest or weed control at 62.5 g/ha: 62.5 g ai/ha, 100=total damage to plant, 0=no damage to plant, read-out: plant damage rating, Foxtail, Giant; for pest or weed control at 250 g/ha: 250 g ai/ha
How it was run: as §2

[11] = test system: barnyardgrass (Echinochloa crus-galli); assay: Test G Pre-Emergence Protocol; settings: Echinochloa crus-galli, pre-emergence, 312 h, evaluated after 13 days; for pest or weed control at 15.625 g/ha: 15.625 g ai/ha, read-out: Barnyard grass damage rating (100=total damage to plant; 0=no damage to plant); for pest or weed control at 62.5 g/ha: 62.5 g ai/ha, 100=total damage to plant, 0=no damage to plant, read-out: plant damage rating, Barnyardgrass; for pest or weed control at 250 g/ha: 250 g ai/ha, read-out: Barnyardgrass damage rating (100=total damage to plant; 0=no damage to plant)
How it was run: as §2

[12] = test system: velvetleaf (Abutilon theophrasti); assay: Test G Pre-Emergence Protocol; settings: Abutilon theophrasti, pre-emergence, 312 h, evaluated after 13 days; for pest or weed control at 15.625 g/ha: 15.625 g ai/ha; for pest or weed control at 15.625 g/ha / pest or weed control at 250 g/ha: read-out: Velvetleaf damage rating (100=total damage to plant; 0=no damage to plant); for pest or weed control at 62.5 g/ha: 62.5 g ai/ha, 100=total damage to plant, 0=no damage to plant, read-out: plant damage rating, Velvetleaf; for pest or weed control at 250 g/ha: 250 g ai/ha
How it was run: as §2

Row | SMILES | pest or weed control at 15.625 g/ha [1] [%] | pest or weed control at 62.5 g/ha [1] [%] | pest or weed control at 250 g/ha [1] [%] | pest or weed control at 15.625 g/ha [2] [%] | pest or weed control at 62.5 g/ha [2] [%] | pest or weed control at 250 g/ha [2] [%] | plant injury at 15.625 g/ha [3] [%] | plant injury at 62.5 g/ha [3] [%] | plant injury at 250 g/ha [3] [%] | pest or weed control at 15.625 g/ha [4] [%] | pest or weed control at 62.5 g/ha [4] [%] | pest or weed control at 250 g/ha [4] [%] | pest or weed control at 15.625 g/ha [5] [%] | pest or weed control at 62.5 g/ha [5] [%] | pest or weed control at 250 g/ha [5] [%] | pest or weed control at 15.625 g/ha [6] [%] | pest or weed control at 62.5 g/ha [6] [%] | pest or weed control at 250 g/ha [6] [%] | pest or weed control at 15.625 g/ha [7] [%] | pest or weed control at 62.5 g/ha [7] [%] | also measured
1 | CN1C[C@H](c2ccc(C(F)(F)F)cc2)[C@](C)(C(=O)Nc2cccc(F)c2F)C1=O (racemic) [Compound 1406] | 0 | 40 | 20 | 0 | 10 | 0 | 20 | 0 | 10 | 0 | 0 | 0 | 0 | 0 | 20 | 0 | 20 | 20 | 0 | 0 | pest or weed control at 250 g/ha [7]: 0%; pest or weed control at 15.625 g/ha [8]: 0%; pest or weed control at 62.5 g/ha [8]: 0%; pest or weed control at 250 g/ha [8]: 0%; plant injury at 15.625 g/ha [9]: 0%; plant injury at 62.5 g/ha [9]: 0%; plant injury at 250 g/ha [9]: 0%; pest or weed control at 15.625 g/ha [10]: 0%; pest or weed control at 62.5 g/ha [10]: 0%; pest or weed control at 250 g/ha [10]: 0%; pest or weed control at 15.625 g/ha [11]: 0%; pest or weed control at 62.5 g/ha [11]: 0%; pest or weed control at 250 g/ha [11]: 0%; pest or weed control at 15.625 g/ha [12]: 0%; pest or weed control at 62.5 g/ha [12]: 0%; pest or weed control at 250 g/ha [12]: 0%
2 | CN1C[C@H](c2cccc(C(C)(C)C#N)c2)[C@@H](C(=O)Nc2ccccc2F)C1=O (racemic) [Compound 1407] | 20 | 10 | 30 | 0 | 20 | 30 | 0 | 10 | 20 | 0 | 70 | 70 | 10 | 40 | 60 | 10 | 20 | 20 | 0 | 0 | pest or weed control at 250 g/ha [7]: 0%; pest or weed control at 15.625 g/ha [8]: 0%; pest or weed control at 62.5 g/ha [8]: 0%; pest or weed control at 250 g/ha [8]: 0%; plant injury at 15.625 g/ha [9]: 0%; plant injury at 62.5 g/ha [9]: 0%; plant injury at 250 g/ha [9]: 0%; pest or weed control at 15.625 g/ha [10]: 50%; pest or weed control at 62.5 g/ha [10]: 80%; pest or weed control at 250 g/ha [10]: 90%; pest or weed control at 15.625 g/ha [11]: 10%; pest or weed control at 62.5 g/ha [11]: 80%; pest or weed control at 250 g/ha [11]: 90%; pest or weed control at 15.625 g/ha [12]: 0%; pest or weed control at 62.5 g/ha [12]: 0%; pest or weed control at 250 g/ha [12]: 0%
